# Counter-ions that a name gives are not always drawn. Like-named read-outs stand apart in the source and are kept apart here.
# Experiments:
# mutant G2019S LRRK2 = mutant G2019S LRRK2 (Homo sapiens, UniProt Q5S007, G2019S); assay: LRRK2 Assay, Format 2 (Lantha Screen), G2019S mutant; type: biochemical; parameters: purchased Invitrogen PV4881
# Procedure: (§1) LRRK2 kinase activity was measured using Lantha Screen technology from Invitrogen. GST-tagged truncated LRRK2 from Invitrogen (Cat # PV4874) was incubated with a fluorescein-labeled peptide substrate based upon ezrin/radixin/moesin (ERM), also known as LRRKtide (Invitrogen cat # PR8976A), in the presence of a dose response of compound. Upon completion, the assay was stopped and detected with a terbium labeled anti-phospho-ERM antibody (Invitrogen, cat # PR8975A). […] Using Echo acoustic dispensing, 60 nL of compound was transferred to a low volume Corning 384-well assay plate. 3 μL of a working solution of substrate (200 nM LRRKtide, […]) prepared in assay buffer (50 mM HEPES, pH 7.5, 3 mM MgCl2, with 2 mM DTT and 0.01% Brij35 added fresh) was added to the 60 nL compound assay plate. The kinase reaction was started with […] of a working solution of LRRK2 enzyme at a concentration of […]. The final reaction concentrations were 100 nM LRRKtide, […], […] LRRK2 enzyme and a compound dose response with a top dose of 3 mM. The reaction was allowed to progress at room temperature for 30 minutes and then stopped with the addition of […] of detection buffer (20 mM Tris pH 7.6, 0.01% NP-40, 6 mM EDTA with 2 nM terbium labeled anti-phospho-ERM). After an incubation of 1 hour at room temperature, the plate was read on an Envision with an excitation wavelength of 340 nm and a reading emission at both 520 nm and 495 nm. The ratio of the 520 nm and 495 nm emission was used to analyze the data. Inhibition of mutant G2019S LRRK2 (Invitrogen cat # PV4881) was measured in the exact same method. All final concentrations of substrate ATP and enzyme were the same.
# [1] = target: T1, GST-tagged truncated LRRK2 (Homo sapiens, UniProt Q5S007); assay: LRRK2 Assay, Format 2 (Lantha Screen), WT; type: biochemical
# T1 construct: GST-tagged truncated LRRK2 from Invitrogen (Cat # PV4874); GST; purchased Invitrogen PV4874
# T1 sequence (Q5S007 970-2527 limits assumed): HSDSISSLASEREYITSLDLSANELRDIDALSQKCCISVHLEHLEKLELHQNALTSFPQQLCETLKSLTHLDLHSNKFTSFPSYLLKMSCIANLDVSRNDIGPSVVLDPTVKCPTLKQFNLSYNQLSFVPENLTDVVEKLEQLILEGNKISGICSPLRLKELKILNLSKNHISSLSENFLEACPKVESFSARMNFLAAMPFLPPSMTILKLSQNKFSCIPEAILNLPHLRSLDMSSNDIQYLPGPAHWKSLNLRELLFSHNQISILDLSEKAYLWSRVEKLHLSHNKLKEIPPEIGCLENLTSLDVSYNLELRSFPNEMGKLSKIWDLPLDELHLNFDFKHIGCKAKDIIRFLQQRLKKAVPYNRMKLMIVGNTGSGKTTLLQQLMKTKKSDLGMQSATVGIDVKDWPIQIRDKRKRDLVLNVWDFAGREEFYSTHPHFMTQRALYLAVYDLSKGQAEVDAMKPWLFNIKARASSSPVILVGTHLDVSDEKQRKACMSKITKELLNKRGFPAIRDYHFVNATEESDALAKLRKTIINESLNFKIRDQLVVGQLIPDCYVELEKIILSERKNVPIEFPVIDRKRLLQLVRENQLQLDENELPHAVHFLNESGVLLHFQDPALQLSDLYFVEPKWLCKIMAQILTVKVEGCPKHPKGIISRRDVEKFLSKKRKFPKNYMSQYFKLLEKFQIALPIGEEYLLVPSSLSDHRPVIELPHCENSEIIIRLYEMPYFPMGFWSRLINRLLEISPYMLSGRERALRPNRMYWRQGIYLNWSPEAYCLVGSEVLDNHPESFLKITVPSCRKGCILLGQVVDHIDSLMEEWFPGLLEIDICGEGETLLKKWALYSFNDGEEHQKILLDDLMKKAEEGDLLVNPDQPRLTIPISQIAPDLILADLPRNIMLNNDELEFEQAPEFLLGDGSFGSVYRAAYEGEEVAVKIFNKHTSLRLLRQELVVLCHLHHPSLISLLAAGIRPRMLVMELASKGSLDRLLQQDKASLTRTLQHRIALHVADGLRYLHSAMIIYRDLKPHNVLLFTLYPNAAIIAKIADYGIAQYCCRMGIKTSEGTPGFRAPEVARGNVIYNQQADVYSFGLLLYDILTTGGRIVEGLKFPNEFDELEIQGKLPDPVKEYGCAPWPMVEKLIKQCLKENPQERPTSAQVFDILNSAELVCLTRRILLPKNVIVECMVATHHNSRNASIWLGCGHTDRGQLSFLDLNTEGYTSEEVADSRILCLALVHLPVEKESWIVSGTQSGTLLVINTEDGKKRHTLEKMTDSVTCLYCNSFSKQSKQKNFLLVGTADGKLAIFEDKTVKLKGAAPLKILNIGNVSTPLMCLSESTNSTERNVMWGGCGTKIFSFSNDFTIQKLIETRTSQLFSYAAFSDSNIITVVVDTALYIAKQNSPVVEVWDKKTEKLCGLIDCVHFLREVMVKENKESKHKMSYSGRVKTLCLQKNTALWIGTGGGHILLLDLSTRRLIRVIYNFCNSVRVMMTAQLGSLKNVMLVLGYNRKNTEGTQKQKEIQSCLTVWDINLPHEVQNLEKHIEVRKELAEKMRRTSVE
# Procedure: as §1
# [2] = geometric mean of 2-4 determinations unless otherwise indicated (a: >=5; b: single determination), read-out: LRRK2, Format 2 G2019S IC50
# [3] = geometric mean of 2-4 determinations unless otherwise indicated (a: >=5; b: single determination)
# Sequence of mutant G2019S LRRK2 (Q5S007 970-2527 G2019S limits assumed): as the sequence (Q5S007 970-2527 limits assumed) above, with G1050S counted along it
SMILES,IC50 (mutant G2019S LRRK2; [2]) [nM],"IC50 [1, 3] [nM]","IC50 (mutant G2019S LRRK2; 100 nM LRRKtide, 1000 mM ATP (so in the source), 30 minutes at room temperature, read-out: LRRK2, Format 2 G2019S mutant IC50) [nM]","IC50 ([1]; 100 nM LRRKtide, 1000 mM ATP (so in the source), 30 minutes at room temperature) [nM]"
"Cc1cc(Cc2nc3cnc4ccc(C#N)cc4c3n2C2CCCC2)no1 [Example 152, 1-cyclopentyl-2-[(5-methyl-1,2-oxazol-3-yl)methyl]-1H-imidazo[4,5-c]quinoline-8-carbonitrile, formate salt]",40.8,25.1,–,–
"Cc1nc(Cc2nc3cnc4ccc(C#N)cc4c3n2[C@@H]2CCO[C@H](C)C2)cs1 [Example 234, 1-[(2R,4R)-2-methyltetrahydro-2H-pyran-4-yl]-2-[(2-methyl-1,3-thiazol-4-yl)methyl]-1H-imidazo[4,5-c]quinoline-8-carbonitrile, formate salt]",9.5,10.7,–,–
"Cc1cc(Cc2nc3cnc4ccc(C#N)cc4c3n2[C@H]2CCC[C@H]2F)no1 (racemic) [Example 245, 1-(cis-2-fluorocyclopentyl)-2-[(5-methyl-1,2-oxazol-3-yl)methyl]-1H-imidazo[4,5-c]quinoline-8-carbonitrile, formate salt]",18.6,14.3,–,–
"C[C@@H]1C[C@H](n2c(Cc3ccccn3)nc3cnc4ccc(Cl)cc4c32)CCO1 [Example 250, 8-chloro-1-[(2R,4R)-2-methyltetrahydro-2H-pyran-4-yl]-2-(pyridin-2-ylmethyl)-1H-imidazo[4,5-c]quinoline, formate salt]",11,10.4,–,–
"Cc1cc(Cc2nc3cnc4ccc(C#N)cc4c3n2[C@@H]2CCO[C@H](C)C2)on1 [Example 95, 2-[(3-Methyl-1,2-oxazol-5-yl)methyl]-1-[(2R,4R)-2-methyltetrahydro-2H-pyran-4-yl]-1H-imidazo[4,5-c]quinoline-8-carbonitrile]",6,5.36,–,–
"Cc1ccn(Cc2nc3cnc4ccc(C#N)cc4c3n2[C@@H]2CCO[C@H](C)C2)n1 [Example 233, 2-[(3-methyl-1H-pyrazol-1-yl)methyl]-1-[(2R,4R)-2-methyltetrahydro-2H-pyran-4-yl]-1H-imidazo[4,5-c]quinoline-8-carbonitrile, formate salt]",11.9,14.3,–,–
"Cc1cc(Cc2nc3cnc4ccc(C#N)cc4c3n2C2CCC(F)(F)C2)no1 (stereo not drawn) [Example 246, 1-(3,3-difluorocyclopentyl)-2-[(5-methyl-1,2-oxazol-3-yl)methyl]-1H-imidazo[4,5-c]quinoline-8-carbonitrile, formate salt]",86.5,65,–,–
"Cc1cn(Cc2nc3cnc4ccc(Cl)cc4c3n2C2CCC2(F)F)nn1 (stereo not drawn) [Example 187, 8-chloro-1-(2,2-difluorocyclobutyl)-2-[(4-methyl-1H-1,2,3-triazol-1-yl)methyl]-1H-imidazo[4,5-c]quinoline]",33.3,28.1,–,–
"C[C@@H]1C[C@H](n2c(Cc3cn(C)cn3)nc3cnc4ccc(Cl)cc4c32)CCO1 [Example 131, 8-chloro-2-[(1-methyl-1H-imidazol-4-yl)methyl]-1-[(2R,4R)-2-methyltetrahydro-2H-pyran-4-yl]-1H-imidazo[4,5-c]quinoline]",7.86,7.23,–,–
"Cc1cnn(Cc2nc3cnc4ccc(C#N)cc4c3n2[C@H]2CC[C@@H](F)C2)c1 (single isomer, unassigned) [Example 94, 1-[cis-3-Fluorocyclopentyl]-2-[(4-methyl-1H-pyrazol-1-yl)methyl]-1H-imidazo[4,5-c]quinoline-8-carbonitrile]",6.01,6.33,–,–
"Cc1cc(Cc2nc3cnc4ccc(C#N)cc4c3n2C2CCOC(C)(C)C2)no1 (stereo not drawn) [Example 239, 1-(2,2-dimethyltetrahydro-2H-pyran-4-yl)-2-[(5-methyl-1,2-oxazol-3-yl)methyl]-1H-imidazo[4,5-c]quinoline-8-carbonitrile, formate salt]",10.8,9.74,–,–
"Cc1cc(Cc2nc3cnc4ccc(C#N)cc4c3n2C2CCC2)no1 [Example 216, 1-cyclobutyl-2-[(5-methyl-1,2-oxazol-3-yl)methyl]-1H-imidazo[4,5-c]quinoline-8-carbonitrile, formate salt]",38.6,26.6,–,–
"Cc1cc(Cc2nc3cnc4ccc(Cl)cc4c3n2[C@@H]2CCO[C@H](CO)C2)no1 [Example 137, [(2S,4R)-4-{8-chloro-2-[(5-methyl-1,2-oxazol-3-yl)methyl]-1H-imidazo[4,5-c]quinolin-1-yl}tetrahydro-2H-pyran-2-yl]methanol]",12,14.1,–,–
"C[C@@H]1C[C@H](n2c(Cc3cc(CF)on3)nc3cnc4ccc(C#N)cc4c32)CCO1 [Example 189, 2-{[5-(fluoromethyl)-1,2-oxazol-3-yl]methyl}-1-[(2R,4R)-2-methyltetrahydro-2H-pyran-4-yl]-1H-imidazo[4,5-c]quinoline-8-carbonitrile, trifluoroacetate salt]",3.54,5.04,–,–
"C[C@@H]1C[C@H](n2c(Cc3cnccn3)nc3cnc4ccc(Cl)cc4c32)CCO1 [Example 249, 8-chloro-1-[(2R,4R)-2-methyltetrahydro-2H-pyran-4-yl]-2-(pyrazin-2-ylmethyl)-1H-imidazo[4,5-c]quinoline, trifluoroacetate salt]",18.6,16.9,–,–
"N#Cc1ccc2ncc3nc(Cn4cc(C(F)(F)F)cn4)n([C@@H]4CC[C@H](F)C4)c3c2c1 (single isomer, unassigned; ent-1) [Example 201, 1-(cis-3-fluorocyclopentyl)-2-{[4-(trifluoromethyl)-1H-pyrazol-1-yl]methyl}-1H-imidazo[4,5-c]quinoline-8-carbonitrile, ENT-1]",11.3,7.47,–,–
"Cc1cc(Cc2nc3cnc4ccc(C#N)cc4c3n2C2CCCC2(F)F)no1 (single isomer, unassigned; ent-2) [Example 144, 1-(2,2-difluorocyclopentyl)-2-[(5-methyl-1,2-oxazol-3-yl)methyl]-1H-imidazo[4,5-c]quinoline-8-carbonitrile, ENT-2]",29.3,19.3,–,–
"COCc1cn(Cc2nc3cnc4ccc(C#N)cc4c3n2C2CCC(F)C2)nn1 (single isomer, unassigned; ent-2) [enantiomer of Example 132, 1-(cis-3-fluorocyclopentyl)-2-{[4-(methoxymethyl)-1H-1,2,3-triazol-1-yl]methyl}-1H-imidazo[4,5-c]quinoline-8-carbonitrile, ENT-2]",–,–,34.5,26.8
"Cc1cn(Cc2nc3cnc4ccc(Cl)cc4c3n2C2CCOC(C)(C)C2)nn1 (stereo not drawn) [Example 148, 8-chloro-1-(2,2-dimethyltetrahydro-2H-pyran-4-yl)-2-[(4-methyl-1H-1,2,3-triazol-1-yl)methyl]-1H-imidazo[4,5-c]quinoline, formate salt]",13.6,12.6,–,–
"C[C@@H]1C[C@H](n2c(C(F)(F)c3ccccn3)nc3cnc4ccc(C#N)cc4c32)CCO1 [Example 236, 2-[difluoro(pyridin-2-yl)methyl]-1-[(2R,4R)-2-methyltetrahydro-2H-pyran-4-yl]-1H-imidazo[4,5-c]quinoline-8-carbonitrile, formate salt]",11.9,13,–,–
"Cc1nn2cc(Cc3nc4cnc5ccc(C#N)cc5c4n3[C@@H]3CC[C@H](F)C3)nc2s1 (single isomer, unassigned; ent-2) [Example 169, 1-(cis-3-fluorocyclopentyl)-2-[(2-methylimidazo[2,1-b][1,3,4]thiadiazol-6-yl)methyl]-1H-imidazo[4,5-c]quinoline-8-carbonitrile, ENT-2]",5.55,3.59,–,–
"CO[C@H]1CC[C@H](n2c(Cc3cc(C)on3)nc3cnc4ccc(C#N)cc4c32)CC1 [Example 219, 1-(trans-4-methoxycyclohexyl)-2-[(5-methyl-1,2-oxazol-3-yl)methyl]-1H-imidazo[4,5-c]quinoline-8-carbonitrile, formate salt]",126,246,–,–
"CC1(C)CC(n2c(Cc3cc(C(F)(F)F)on3)nc3cnc4ccc(C#N)cc4c32)CCO1 (single isomer, unassigned; ent-1) [Example 176, 1-(2,2-dimethyltetrahydro-2H-pyran-4-yl)-2-{[5-(trifluoromethyl)-1,2-oxazol-3-yl]methyl}-1H-imidazo[4,5-c]quinoline-8-carbonitrile, ENT-1]",12.7,13,–,–
"C[C@@H]1C[C@H](n2c(C(F)c3ccon3)nc3cnc4ccc(Cl)cc4c32)CCO1 (single isomer, unassigned) [Example 238]",3.82,3.88,–,–
